Among the data in patent US10968225B2, “Compounds and compositions for the treatment of cystic fibrosis” (Fondazione Istituto Italiano Di Tecnologia, priority 2017, dated 2021) are EC50 values, retold here.

Where a name gives a salt, the structure may show the parent alone. Some results are limits rather than exact numbers.

The EC50 is the concentration needed to bring the measured effect to its halfway point.

T1 sequence (P13569 with tags, fused parts or gaps DEL508-508): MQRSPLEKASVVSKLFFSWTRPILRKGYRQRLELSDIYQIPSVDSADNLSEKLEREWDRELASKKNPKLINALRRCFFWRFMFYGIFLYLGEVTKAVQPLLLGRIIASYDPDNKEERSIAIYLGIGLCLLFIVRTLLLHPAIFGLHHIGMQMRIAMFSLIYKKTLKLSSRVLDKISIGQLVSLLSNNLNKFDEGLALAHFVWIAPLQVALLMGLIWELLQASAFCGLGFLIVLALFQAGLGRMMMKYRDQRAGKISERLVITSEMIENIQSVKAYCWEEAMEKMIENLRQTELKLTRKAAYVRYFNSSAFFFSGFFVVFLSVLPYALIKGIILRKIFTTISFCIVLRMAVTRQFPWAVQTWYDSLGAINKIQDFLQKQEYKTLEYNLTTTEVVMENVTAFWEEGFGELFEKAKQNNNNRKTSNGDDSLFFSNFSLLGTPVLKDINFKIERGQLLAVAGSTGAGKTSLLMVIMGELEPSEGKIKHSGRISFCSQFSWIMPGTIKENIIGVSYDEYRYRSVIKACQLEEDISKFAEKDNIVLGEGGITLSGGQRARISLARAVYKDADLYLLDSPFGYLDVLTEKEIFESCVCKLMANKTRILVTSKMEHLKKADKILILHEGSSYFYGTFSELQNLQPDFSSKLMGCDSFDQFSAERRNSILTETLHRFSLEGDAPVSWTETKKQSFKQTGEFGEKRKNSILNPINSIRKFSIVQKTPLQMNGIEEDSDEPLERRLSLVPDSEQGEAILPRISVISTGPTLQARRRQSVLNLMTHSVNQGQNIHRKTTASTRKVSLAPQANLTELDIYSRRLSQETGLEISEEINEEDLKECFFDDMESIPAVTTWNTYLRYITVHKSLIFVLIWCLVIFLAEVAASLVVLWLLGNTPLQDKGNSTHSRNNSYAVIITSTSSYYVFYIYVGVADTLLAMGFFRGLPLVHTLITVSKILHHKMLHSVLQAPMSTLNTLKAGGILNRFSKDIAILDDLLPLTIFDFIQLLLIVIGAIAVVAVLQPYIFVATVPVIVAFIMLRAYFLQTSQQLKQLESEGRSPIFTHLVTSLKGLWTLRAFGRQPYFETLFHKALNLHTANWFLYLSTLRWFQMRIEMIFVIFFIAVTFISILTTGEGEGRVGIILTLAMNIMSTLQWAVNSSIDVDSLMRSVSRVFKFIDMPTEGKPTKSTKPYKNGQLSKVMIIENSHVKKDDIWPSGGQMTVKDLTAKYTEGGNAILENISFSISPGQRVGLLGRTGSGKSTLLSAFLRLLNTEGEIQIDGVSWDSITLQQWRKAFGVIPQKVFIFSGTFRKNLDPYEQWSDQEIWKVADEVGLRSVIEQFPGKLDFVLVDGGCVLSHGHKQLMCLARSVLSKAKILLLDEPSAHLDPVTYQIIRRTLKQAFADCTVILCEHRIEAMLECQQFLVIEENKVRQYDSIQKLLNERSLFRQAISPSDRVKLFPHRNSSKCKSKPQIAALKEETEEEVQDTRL

The assay addresses T1, mutant CFTR (Homo sapiens, UniProt P13569, DEL508-508).
T1 construct: expressed in transfected cells
Kind of assay: Fluorescence (HS-YFP) assay for CFTR activity, corrector assay. The assay is classed as cell-based. As to conditions: CFBE41o- and FRT cells with stable expression of mutant CFTR, read-out: activity (EC50).
For `COC(=O)N1CCc2c(c(C(F)(F)F)nn2-c2cccc(C(=O)N(C)c3ccc4c(c3)OCO4)c2)C1` [Compound 009, Methyl 1-[3-[1,3-benzodioxol-5-yl(methyl)carbamoyl]phenyl]-3-(trifluoromethyl)-6,7-dihydro-4H-pyrazolo[4,3-c] pyridine-5-carboxylate], the EC50 is less than 1000 nM.

For the compound `CN(C(=O)c1cccc(-n2nc(C(F)(F)F)c3c2CCN(C[C@@H]2COC(C)(C)O2)C3)c1)c1ccc2c(c1)OCO2` [Compound 013, N-(1,3-Benzodioxol-5-yl)-3-[5-[[(4R)-2,2-dimethyl-1,3-dioxolan-4-yl]methyl]-3-(trifluoromethyl)-6,7-dihydro-4H-pyrazolo[4,3-c]pyridin-1-yl]-N-methyl-benzamide], the EC50 is less than 1000 nM.

Turning to `CN(C(=O)c1cccc(-n2nc(C(F)(F)F)c3c2CCN(C[C@H]2COC(C)(C)O2)C3)c1)c1ccc2c(c1)OCO2` [Compound 014, N-(1,3-Benzodioxol-5-yl)-3-[5-[[(4S)-2,2-dimethyl-1,3-dioxolan-4-yl]methyl]-3-(trifluoromethyl)-6,7-dihydro-4H-pyrazolo[4,3-c]pyridin-1-yl]-N-methyl-benzamide], the EC50 was less than 1000 nM.

In the case of `CN(C(=O)c1cccc(-n2nc(C(F)(F)F)c3c2CCN(C[C@@H](O)CO)C3)c1)c1ccc2c(c1)OCO2` [Compound 015, N-(1,3-Benzodioxol-5-yl)-3-[5-[(2R)-2,3-dihydroxypropyl]-3-(trifluoromethyl)-6,7-dihydro-4H-pyrazolo[4,3-c]pyridin-1-yl]-N-methyl-benzamide], the EC50 is less than 1000 nM.

On to `CN(C(=O)c1cccc(-n2nc(C(F)(F)F)c3c2CCN(C[C@H](O)CO)C3)c1)c1ccc2c(c1)OCO2` [Compound 016, N-(1,3-Benzodioxol-5-yl)-3-[5-[(2S)-2,3-dihydroxypropyl]-3-(trifluoromethyl)-6,7-dihydro-4H-pyrazolo[4,3-c]pyridin-1-yl]-N-methyl-benzamide], for which the EC50 is less than 1000 nM.

Turning to `CN1CCOc2c(c(C(F)(F)F)nn2-c2cccc(C(=O)N(C)c3ccc4c(c3)OCO4)c2)C1` [Compound 017, N-(1,3-Benzodioxol-5-yl)-N-methyl-3-[5-methyl-3-(trifluoromethyl)-6,7-dihydro-4H-pyrazolo[4,3-f][1,4]oxazepin-1-yl]benzamide], the half-maximal effective concentration (EC50) is less than 1000 nM.

For `CN(C(=O)c1cccc(-n2nc(C(F)(F)F)c3c2CCN(CC2CC2)C3)c1)c1ccc2c(c1)OCO2` [Compound 019, N-(1,3-Benzodioxol-5-yl)-3-[5-(cyclopropylmethyl)-3-(trifluoromethyl)-6,7-dihydro-4H-pyrazolo[4,3-c]pyridin-1-yl]-N-methyl-benzamide], the EC50 was less than 1000 nM.

Take `CC(C)N1CCc2c(c(C(F)(F)F)nn2-c2cccc(C(=O)N(C)c3ccc4c(c3)OCO4)c2)C1` [Compound 021, N-(1,3-Benzodioxol-5-yl)-3-[5-isopropyl-3-(trifluoromethyl)-6,7-dihydro-4H-pyrazolo[4,3-c]pyridin-1-yl]-N-methyl-benzamide]: the EC50 is less than 1000 nM.

For `CN(C(=O)c1cccc(-n2nc(C(F)(F)F)c3c2CCN(Cc2cccc(C(=O)O)c2)C3)c1)c1ccc2c(c1)OCO2` [Compound 025, 3-[[1-[3-[1,3-Benzodioxol-5-yl(methyl)carbamoyl]phenyl]-3-(trifluoromethyl)-6,7-dihydro-4H-pyrazolo[4,3-c]pyridin-5-yl]methyl]benzoic acid], the EC50 is less than 1000 nM.

As to `CN(C(=O)c1cccc(-n2nc(C(F)(F)F)c3c2CCN(Cc2ccc(C(=O)O)cc2)C3)c1)c1ccc2c(c1)OCO2` [Compound 026, 4-[[1-[3-[1,3-Benzodioxol-5-yl(methyl)carbamoyl]phenyl]-3-(trifluoromethyl)-6,7-dihydro-4H-pyrazolo[4,3-c]pyridin-5-yl]methyl]benzoic acid], the EC50 was less than 1000 nM.

In the case of `CN(C(=O)c1cccc(-n2nc(C(F)(F)F)c3c2CN(C(=O)OC(C)(C)C)CC3)c1)c1ccc2c(c1)OCO2` [Compound 027, tert-Butyl 1-[3-[1,3-benzodioxol-5-yl(methyl)carbamoyl]phenyl]-3-(trifluoromethyl)-5,7-dihydro-4H-pyrazolo[3,4-c]pyridine-6-carboxylate], the EC50 was less than 1000 nM.

Regarding `CN(C(=O)c1cccc(-n2nc(C(F)(F)F)c3c2CCCN3C(=O)OC(C)(C)C)c1)c1ccc2c(c1)OCO2` [Compound 028, tert-Butyl 1-[3-[1,3-benzodioxol-5-yl(methyl)carbamoyl]phenyl]-3-(trifluoromethyl)-6,7-dihydro-5H-pyrazolo[4,3-b]pyridine-4-carboxylate], the EC50 is less than 1000 nM.

Consider `CN1CCc2c(C(F)(F)F)nn(-c3cccc(C(=O)N(C)c4ccc5c(c4)OCO5)c3)c2C1` [Compound 029, N-(1,3-Benzodioxol-5-yl)-N-methyl-3-[6-methyl-3-(trifluoromethyl)-5,7-dihydro-4H-pyrazolo[3,4-c]pyridin-1-yl]benzamide], for which the EC50 is less than 1000 nM.

In the case of `Cc1nc2ccc(N(C)C(=O)c3cccc(-n4nc(C(F)(F)F)c5c4CCNC5)c3)cc2o1` [Compound 030, N-Methyl-N-(2-methyl-1,3-benzoxazol-6-yl)-3-[3-(trifluoromethyl)-4,5,6,7-tetrahydropyrazolo[4,3-c]pyridin-1-yl]benzamide hydrochloride], the EC50 was in the range of 1000 to 2000 nM.

Consider `CC(C)C(=O)N1CCc2c(c(C(F)(F)F)nn2-c2cccc(C(=O)N(C)c3ccc4c(c3)OCO4)c2)C1` [Compound 031, N-(1,3-Benzodioxol-5-yl)-N-methyl-3-[5-(2-methylpropanoyl)-3-(trifluoromethyl)-6,7-dihydro-4H-pyrazolo[4,3-c]pyridin-1-yl]benzamide], for which the EC50 was less than 1000 nM.

With `CN(C(=O)c1cccc(-n2nc(C(F)(F)F)c3c2CCN(C(=O)C(C)(C)C(F)(F)F)C3)c1)c1ccc2c(c1)OCO2` [Compound 033, N-(1,3-Benzodioxol-5-yl)-N-methyl-3-[5-(3,3,3-trifluoro-2,2-dimethyl-propanoyl)-3-(trifluoromethyl)-6,7-dihydro-4H-pyrazolo[4,3-c]pyridin-1-yl]benzamide], the EC50 was less than 1000 nM.

As to `CN(C(=O)c1cccc(-n2nc(C(F)(F)F)c3c2CCN(C(=O)C2(O)CC2)C3)c1)c1ccc2c(c1)OCO2` [Compound 034, N-(1,3-Benzodioxol-5-yl)-3-[5-(1-hydroxycyclopropanecarbonyl)-3-(trifluoromethyl)-6,7-dihydro-4H-pyrazolo[4,3-c]pyridin-1-yl]-N-methyl-benzamide], the EC50 is less than 1000 nM.

On to `CN(C(=O)c1cccc(-n2nc(C(F)(F)F)c3c2CCN(C(=O)C(C)(C)c2ccccc2)C3)c1)c1ccc2c(c1)OCO2` [Compound 035, N-(1,3-Benzodioxol-5-yl)-N-methyl-3-[5-(2-methyl-2-phenyl-propanoyl)-3-(trifluoromethyl)-6,7-dihydro-4H-pyrazolo[4,3-c]pyridin-1-yl]benzamide], for which the EC50 was less than 1000 nM.

As for `Cc1nc2cc(F)c(N(C)C(=O)c3cccc(-n4nc(C(F)(F)F)c5c4CCN(C(=O)OC(C)(C)C)C5)c3)cc2o1` [Compound 036, tert-Butyl 1-[3-[(5-fluoro-2-methyl-1,3-benzoxazol-6-yl)-methylcarbamoyl]phenyl]-3-(trifluoromethyl)-6,7-dihydro-4H-pyrazolo[4,3-c]pyridine-5-carboxylate], the EC50 was less than 1000 nM.

Turning to `Cc1nc2cc(F)c(NC(=O)c3cccc(-n4nc(C(F)(F)F)c5c4CCN(C(=O)OC(C)(C)C)C5)c3)cc2o1` [Compound 037, tert-Butyl 1-[3-[(5-fluoro-2-methyl-1,3-benzoxazol-6-yl)carbamoyl]phenyl]-3-(trifluoromethyl)-6,7-dihydro-4H-pyrazolo[4,3-c]pyridine-5-carboxylate], the EC50 is greater than 2000 nM.

Turning to `CN(C(=O)c1cccc(-n2nc(C(F)(F)F)c3c2CNCC3)c1)c1ccc2c(c1)OCO2` [Compound 038, N-(1,3-Benzodioxol-5-yl)-N-methyl-3-[3-(trifluoromethyl)-4,5,6,7-tetrahydropyrazolo[3,4-c]pyridin-1-yl] benzamide hydrochloride], the EC50 is less than 1000 nM.

Consider `Cc1nc2ccc(N(C)C(=O)c3cccc(-n4nc(C(F)(F)F)c5c4CCN(C(=O)OC(C)(C)C)C5)c3)cc2o1` [Compound 039, tert-Butyl 1-[3-[methyl-(2-methyl-1,3-benzoxazol-6-yl)carbamoyl]phenyl]-3-(trifluoromethyl)-6,7-dihydro-4H-pyrazolo[4,3-c]pyridine-5-carboxylate], for which the EC50 is less than 1000 nM.

As to `Cc1nc2ccc(N(C)C(=O)c3cccc(-n4nc(C(F)(F)F)c5c4CCN(C)C5)c3)cc2o1` [Compound 040, N-Methyl-N-(2-methyl-1,3-benzoxazol-6-yl)-3-[5-methyl-3-(trifluoromethyl)-6,7-dihydro-4H-pyrazolo[4,3-c]pyridin-1-yl]benzamide], the EC50 is less than 1000 nM.

With `CC(=O)Nc1ccc(N(C)C(=O)c2cccc(-n3nc(C(F)(F)F)c4c3CCN(C)C4)c2)cc1O` [Compound 041, N-(4-Acetamido-3-hydroxy-phenyl)-N-methyl-3-[5-methyl-3-(trifluoromethyl)-6,7-dihydro-4H-pyrazolo[4,3-c]pyridin-1-yl]benzamide], the EC50 was greater than 2000 nM.

As to `COC(=O)c1ccc(C(=O)N2CCc3c(c(C(F)(F)F)nn3-c3cccc(C(=O)N(C)c4ccc5c(c4)OCO5)c3)C2)cc1` [Compound 042, Methyl 4-[1-[3-[1,3-benzodioxol-5-yl(methyl)carbamoyl]phenyl]-3-(trifluoromethyl)-6,7-dihydro-4H-pyrazolo[4,3-c]pyridine-5-carbonyl]benzoate], the EC50 is less than 1000 nM.

Turning to `CN(C(=O)c1cccc(-n2nc(C(F)(F)F)c3c2CCN(C(=O)c2ccc(C(=O)O)cc2)C3)c1)c1ccc2c(c1)OCO2` [Compound 044, 4-[1-[3-[1,3-Benzodioxol-5-yl(methyl)carbamoyl]phenyl]-3-(trifluoromethyl)-6,7-dihydro-4H-pyrazolo[4,3-c]pyridine-5-carbonyl]benzoic acid], the EC50 is greater than 2000 nM.

Take `Cc1nc2cc(F)c(N(C)C(=O)c3cccc(-n4nc(C(F)(F)F)c5c4CCN(C)C5)c3)cc2o1` [Compound 046, N-(5-Fluoro-2-methyl-1,3-benzoxazol-6-yl)-N-methyl-3-[5-methyl-3-(trifluoromethyl)-6,7-dihydro-4H-pyrazolo[4,3-c]pyridin-1-yl]benzamide]: the EC50 was less than 1000 nM.
